# From patent US12077503B2, “Substituted cyclic amides and their use as herbicides” (FMC CORPORATION, priority 2015, dated 2024)
# Experiments:
# Format in all cases: in vivo
# [1] = test system: giant foxtail (Setaria faberii); experiment: Test A preemergence
# Method in brief: (§1)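 Preemergence directed soil spray on seeded pots, or postemergence application to plants 2–10 cm, one- to two-leaf. Solvent mixture non-phytotoxic, with surfactant. Scored ~10 d later, visually, 0–100 vs untreated.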
# [2] = test system: ragweed (common ragweed, Ambrosia elatior); experiment: Test A preemergence
# Method in brief: as §1
# Kochia (Kochia scoparia) [3] = experiment: Test A preemergence
# Method in brief: as §1
# [4] = test system: pigweed (Amaranthus retroflexus); experiment: Test A preemergence
# [5] = test system: barnyardgrass (Echinochloa crus-galli); experiment: Test A preemergence
# Method in brief: as §1
# [6] = test system: ryegrass, Italian (Italian ryegrass, Lolium multiflorum); experiment: Test A preemergence
# Method in brief: as §1
# [7] = test system: barnyardgrass (Echinochloa crus-galli); experiment: Test B flooded paddy test; settings: Flood; for Plant response rating, Barnyardgrass: 0 to 100 scale where 0 is no effect and 100 is complete control, 13 to 15 d
# Method in brief: (§2)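 Evaluation by eye, against controls, occurred 13–15 d post-treatment in a greenhouse, using a 0 (no effect) to 100 (complete control) scale. Application was into the paddy water, 3 cm deep over the soil, on 2-leaf plants.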
# [8] = test system: ducksalad (Heteranthera limosa); experiment: Test B flooded paddy test; settings: Flood; for Plant response rating, Ducksalad: 0 to 100 scale where 0 is no effect and 100 is complete control, 13 to 15 d
# Method in brief: as §2
# [9] = test system: sedge, umbrella (small-flower umbrella sedge, Cyperus difformis); experiment: Test B flooded paddy test; settings: Flood, 0 to 100 scale where 0 is no effect and 100 is complete control; for Plant response rating, Sedge, Umbrella: 13 to 15 d
# Method in brief: as §2
# rice (Oryra sativa) = experiment: Test B flooded paddy test; settings: Flood; for Plant response rating, Rice: 0 to 100 scale where 0 is no effect and 100 is complete control, 13 to 15 d
# Method in brief: as §2
# [10] = test system: giant foxtail (Setaria faberii); experiment: Test A postemergence
# Method in brief: as §1
# [11] = test system: ragweed (common ragweed, Ambrosia elatior); experiment: Test A postemergence
# Method in brief: as §1
# Kochia (Kochia scoparia) [12] = experiment: Test A postemergence
# Method in brief: as §1
# [13] = test system: pigweed (Amaranthus retroflexus); experiment: Test A postemergence
# Method in brief: as §1
# [14] = test system: blackgrass (Alopecurus myosuroides); experiment: Test A postemergence
# Method in brief: as §1
# [15] = test system: barnyardgrass (Echinochloa crus-galli); experiment: Test A postemergence
# Method in brief: as §1
# corn (Zea mays) = experiment: Test A postemergence
# Method in brief: as §1
# [16] = test system: wheat (Triticum aestivum); experiment: Test A postemergence
# Method in brief: as §1
# [17] = test system: Galium (catchweed bedstraw, Galium aparine); experiment: Test A postemergence
# Method in brief: as §1
# [18] = test system: ryegrass, Italian (Italian ryegrass, Lolium multiflorum); experiment: Test A postemergence
# Method in brief: as §1
# [19] = 125 g ai/ha, preemergence, 0 to 100 scale (0 no effect, 100 complete control)
# [20] = Preemergence, 500 g ai/ha, visual injury approx. 10 d
# [21] = 125 g ai/ha, postemergence, visual injury rating on 0 to 100 scale (0 no effect, 100 complete control), approx. 10 d
# [22] = 500 g ai/ha, postemergence, 0 to 100 scale, 0 no effect, 100 complete control
# [23] = Preemergence, 500 g ai/ha, 0 is no effect, 100 is complete control
# [24] = Postemergence, 125 g ai/ha, visual injury, 0 to 100 scale (0 no effect, 100 complete control), approx. 10 d
# [25] = 125 g ai/ha, Preemergence, visual injury rating after approximately 10 d
# [26] = 500 g ai/ha, preemergence, visual injury rating about 10 d after treatment, 0 to 100 scale (0 no effect, 100 complete control)
# [27] = 250 g ai/ha, scale of 0 to 100 where 0 is no effect and 100 is complete control
# [28] = 125 g ai/ha, Postemergence, visual injury after approximately 10 d, 0 to 100 scale where 0 is no effect and 100 is complete control
compound,measurement,setting,value
COc1ccc(NC(=O)C2C(=O)NCC2c2ccc(F)c(F)c2)cc1F (centres unmarked) [Compound 415],"Plant response rating, Foxtail, Giant",[1]; [19],0
same,"Foxtail, Giant plant response rating (0 to 100 scale, 0 is no effect, 100 is complete control)",[1]; [20],0
same,"Plant response rating, Ragweed",[2]; [19],0
same,"Ragweed plant response rating (0 to 100 scale, 0 is no effect, 100 is complete control)",[2]; [20],0
same,"Plant response rating, Kochia",Kochia (Kochia scoparia) [3]; [19],0
same,"Kochia plant response rating (0 to 100 scale, 0 is no effect, 100 is complete control)",Kochia (Kochia scoparia) [3]; [20],0
same,"Plant response rating, Pigweed",[4]; [19],0
same,"Pigweed plant response rating (0 to 100 scale, 0 is no effect, 100 is complete control)",[4]; [20],0
same,"Plant response rating, Barnyardgrass",[5]; [19],0
same,"Barnyardgrass plant response rating (0 to 100 scale, 0 is no effect, 100 is complete control)",[5]; [20],0
same,"Plant response rating, Ryegrass, Italian",[6]; [19],0
same,"Ryegrass, Italian plant response rating (0 to 100 scale, 0 is no effect, 100 is complete control)",[6]; [20],0
same,"Plant response rating, Barnyardgrass",[7]; 500 g ai/ha,0
same,"Plant response rating, Ducksalad",[8]; 500 g ai/ha,0
same,"Plant response rating, Sedge, Umbrella",[9]; 500 g ai/ha,0
same,"Plant response rating, Rice",rice (Oryra sativa); 500 g ai/ha,0
same,"Foxtail, Giant plant response rating",[10]; [21],0
same,"Plant response rating, Foxtail, Giant",[10]; [22],0
same,Ragweed plant response rating,[11]; [21],0
same,"Plant response rating, Ragweed",[11]; [22],0
same,Kochia plant response rating,Kochia (Kochia scoparia) [12]; [21],0
same,"Plant response rating, Kochia",Kochia (Kochia scoparia) [12]; [22],0
same,Pigweed plant response rating,[13]; [21],0
same,"Plant response rating, Pigweed",[13]; [22],0
same,Blackgrass plant response rating,[14]; [21],0
same,"Plant response rating, Blackgrass",[14]; [22],0
same,Barnyardgrass plant response rating,[15]; [21],0
same,"Plant response rating, Barnyardgrass",[15]; [22],0
same,Corn plant response rating,corn (Zea mays); [21],0
same,"Plant response rating, Corn",corn (Zea mays); [22],0
same,Wheat plant response rating,[16]; [21],0
same,"Plant response rating, Wheat",[16]; [22],0
same,Galium plant response rating,[17]; [21],0
same,"Plant response rating, Galium",[17]; [22],0
same,"Ryegrass, Italian plant response rating",[18]; [21],0
same,"Plant response rating, Ryegrass, Italian",[18]; [22],0
CC(C)Oc1cccc(C2CNC(=O)C2C(=O)Nc2ccc(F)cc2F)c1 (racemic) [Compound 377],"Plant response rating, Foxtail, Giant",[1]; [19],90
same,"Foxtail, Giant plant response rating (0 to 100 scale)",[1]; [23],90
same,"Plant response rating, Ragweed",[2]; [19],0
same,Ragweed plant response rating (0 to 100 scale),[2]; [23],0
same,"Plant response rating, Kochia",Kochia (Kochia scoparia) [3]; [19],50
same,Kochia plant response rating (0 to 100 scale),Kochia (Kochia scoparia) [3]; [23],80
same,"Plant response rating, Pigweed",[4]; [19],50
same,Pigweed plant response rating (0 to 100 scale),[4]; [23],70
same,"Plant response rating, Barnyardgrass",[5]; [19],90
same,Barnyardgrass plant response rating (0 to 100 scale),[5]; [23],90
same,"Plant response rating, Ryegrass, Italian",[6]; [19],20
same,"Ryegrass, Italian plant response rating (0 to 100 scale)",[6]; [23],60
same,"Plant response rating, Barnyardgrass",[7]; 250 g ai/ha,60
same,"Plant response rating, Ducksalad",[8]; 250 g ai/ha,100
same,"Plant response rating, Sedge, Umbrella",[9]; 250 g ai/ha,0
same,"Plant response rating, Rice",rice (Oryra sativa); 250 g ai/ha,25
same,"Plant response rating, Foxtail, Giant",[10]; [22],80
same,"Plant response rating, Foxtail, Giant",[10]; [24],80
same,"Plant response rating, Ragweed",[11]; [22],60
same,"Plant response rating, Ragweed",[11]; [24],40
same,"Plant response rating, Kochia",Kochia (Kochia scoparia) [12]; [22],60
same,"Plant response rating, Kochia",Kochia (Kochia scoparia) [12]; [24],30
same,"Plant response rating, Pigweed",[13]; [22],30
same,"Plant response rating, Pigweed",[13]; [24],0
same,"Plant response rating, Blackgrass",[14]; [22],70
same,"Plant response rating, Blackgrass",[14]; [24],50
same,"Plant response rating, Barnyardgrass",[15]; [22],90
same,"Plant response rating, Barnyardgrass",[15]; [24],90
same,"Plant response rating, Corn",corn (Zea mays); [22],50
same,"Plant response rating, Corn",corn (Zea mays); [24],0
same,"Plant response rating, Wheat",[16]; [22],50
same,"Plant response rating, Wheat",[16]; [24],0
same,"Plant response rating, Galium",[17]; [22],70
same,"Plant response rating, Galium",[17]; [24],60
same,"Plant response rating, Ryegrass, Italian",[18]; [22],50
same,"Plant response rating, Ryegrass, Italian",[18]; [24],30
Cc1ccc([C@H]2CN(C)C(=O)[C@@H]2C(=O)Nc2ccccc2[S+](C)[O-])cc1F (some centres unmarked) [Compound 988],"Foxtail, Giant plant response rating (0 to 100 scale, 0 is no effect, 100 is complete control)",[1]; [25],90
same,"Foxtail, Giant plant response rating",[1]; [26],90
same,"Ragweed plant response rating (0 to 100 scale, 0 is no effect, 100 is complete control)",[2]; [25],50
same,Ragweed plant response rating,[2]; [26],80
same,"Kochia plant response rating (0 to 100 scale, 0 is no effect, 100 is complete control)",Kochia (Kochia scoparia) [3]; [25],30
same,Kochia plant response rating,Kochia (Kochia scoparia) [3]; [26],80
same,"Pigweed plant response rating (0 to 100 scale, 0 is no effect, 100 is complete control)",[4]; [25],30
same,Pigweed plant response rating,[4]; [26],40
same,"Barnyardgrass plant response rating (0 to 100 scale, 0 is no effect, 100 is complete control)",[5]; [25],90
same,Barnyardgrass plant response rating,[5]; [26],90
same,"Ryegrass, Italian plant response rating (0 to 100 scale, 0 is no effect, 100 is complete control)",[6]; [25],0
same,"Ryegrass, Italian plant response rating",[6]; [26],20
same,Barnyardgrass plant response rating,[7]; [27],75
same,Ducksalad plant response rating,[8]; [27],100
same,"Sedge, Umbrella plant response rating",[9]; 250 g ai/ha,0
same,Rice plant response rating,rice (Oryra sativa); [27],20
same,"Plant response rating, Foxtail, Giant",[10]; [28],80
same,"Plant response rating, Ragweed",[11]; [28],0
same,"Plant response rating, Kochia",Kochia (Kochia scoparia) [12]; [28],10
same,"Plant response rating, Pigweed",[13]; [28],0
same,"Plant response rating, Blackgrass",[14]; [28],30
same,"Plant response rating, Barnyardgrass",[15]; [28],80
same,"Plant response rating, Corn",corn (Zea mays); [28],20
same,"Plant response rating, Wheat",[16]; [28],30
same,"Plant response rating, Galium",[17]; [28],50
same,"Plant response rating, Ryegrass, Italian",[18]; [28],20
